Source: article PMC7286788 (ACS infectious diseases, 2019)
Read-outs that look alike come from different tables or passages of the source. Marks after values point to notes of the source that are not given here.

Tests used:
[1] = target: T1, MsmegMurG (Mycolicibacterium smegmatis, UniProt A0R016); assay: biochemical; design: species or system Mycobacterium smegmatis; settings: for inhibition at 10 µM / inhibition at 50 µM / inhibition at 100 µM: read-out: (MsmegMurG) inhibition (%)
[2] = target: MsmegMraY (Mycolicibacterium smegmatis, UniProt A0R019); assay: biochemical; type: biochemical, Mycobacterium smegmatis
[3] = target: T2, HyMurG (Hydrogenivirga sp. 128-5-R1-1, UniProt A8US35); assay: UV-Vis-based MurG assay; type: biochemical; settings: for Inhibition of MurG function / lipid II formation: 50–100 μM; for inhibition at 10 µM / inhibition at 50 µM / inhibition at 100 µM: read-out: HthermMurG inhibition (%)
[4] = target: T1, MsmegMurG; assay: biochemical; design: species or system Mycobacterium smegmatis
[5] = in vitro; settings: African green monkey
[6] = target: T2, HyMurG; assay: HPLC-based MurG assay, dose-response, HyMurG; type: biochemical; settings: read-out: IC50 HyMurG; HPLC-based method; average of two-three experiments
[7] = target: T3, MurG (Mycolicibacterium smegmatis, UniProt A0R016); assay: MurG kinetic parameters and mode of inhibition, enzyme source not stated; type: biochemical
T3 sequence (A0R016 1-385): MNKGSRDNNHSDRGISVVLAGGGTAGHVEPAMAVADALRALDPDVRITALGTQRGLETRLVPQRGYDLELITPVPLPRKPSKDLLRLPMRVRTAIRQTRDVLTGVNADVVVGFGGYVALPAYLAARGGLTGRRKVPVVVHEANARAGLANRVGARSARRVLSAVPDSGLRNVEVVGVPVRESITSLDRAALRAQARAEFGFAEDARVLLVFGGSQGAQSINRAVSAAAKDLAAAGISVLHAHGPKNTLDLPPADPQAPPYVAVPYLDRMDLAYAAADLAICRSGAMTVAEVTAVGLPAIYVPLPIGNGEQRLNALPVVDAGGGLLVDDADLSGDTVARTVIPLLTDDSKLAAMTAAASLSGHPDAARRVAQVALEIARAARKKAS

[8] = tested on: M. smegmatis (ATCC607) and M. tuberculosis (H37Rv); assay: Antimycobacterial activity, text summary for both species; type: cell-based, Mycobacterium spp.; settings: 50 μg/mL
[9] = Cytotoxicity against Vero cells; settings: African green monkey
[10] = tested on: Vero cell
[11] = tested on: M. tuberculosis (H37Rv); assay: MIC determination, M. tuberculosis; type: cell-based, Mycobacterium tuberculosis; settings: 7H9 containing OADC; 14 days
[12] = cited from earlier work
[13] = tested on: M. smegmatis (ATCC607); assay: MIC determination, resazurin, M. smegmatis; type: cell-based, Mycobacterium smegmatis; settings: 7H9 with 0.5% tween 80, 3 days at 37 °C
[14] = target: T2, HyMurG; assay: Kinetic studies with HyMurG; type: biochemical; settings: ristocetin A 5 μM; Michaelis-Menten plots
[15] = substrate: CC(=O)N[C@H]1[C@@H](OP(=O)(O)OP(=O)(O)OC[C@H]2O[C@@H](n3ccc(=O)[nH]c3=O)[C@H](O)[C@@H]2O)O[C@H](CO)[C@@H](O)[C@@H]1O; assay: Kinetic studies of MurG of M. smegmatis; type: biochemical, Mycobacterium smegmatis; settings: other: apparent Km
[16] = read-out: IC50 MsmegMraY, HPLC-based method, average of two-three experiments
[17] = read-out: IC50 MsmegMurG, HPLC-based method, average of two-three experiments

T2 sequence (A8US35 1-350): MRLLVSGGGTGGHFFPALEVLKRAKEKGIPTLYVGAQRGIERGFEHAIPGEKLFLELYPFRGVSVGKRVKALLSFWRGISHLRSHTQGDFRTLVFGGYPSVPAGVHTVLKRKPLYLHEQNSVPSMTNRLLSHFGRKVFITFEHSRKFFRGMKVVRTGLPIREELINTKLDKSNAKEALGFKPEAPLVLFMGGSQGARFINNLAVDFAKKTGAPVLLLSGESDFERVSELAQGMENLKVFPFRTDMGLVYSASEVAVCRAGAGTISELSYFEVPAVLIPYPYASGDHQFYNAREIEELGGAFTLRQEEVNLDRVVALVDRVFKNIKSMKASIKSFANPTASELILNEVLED
Sequence of MsmegMraY (A0R019 whole entry): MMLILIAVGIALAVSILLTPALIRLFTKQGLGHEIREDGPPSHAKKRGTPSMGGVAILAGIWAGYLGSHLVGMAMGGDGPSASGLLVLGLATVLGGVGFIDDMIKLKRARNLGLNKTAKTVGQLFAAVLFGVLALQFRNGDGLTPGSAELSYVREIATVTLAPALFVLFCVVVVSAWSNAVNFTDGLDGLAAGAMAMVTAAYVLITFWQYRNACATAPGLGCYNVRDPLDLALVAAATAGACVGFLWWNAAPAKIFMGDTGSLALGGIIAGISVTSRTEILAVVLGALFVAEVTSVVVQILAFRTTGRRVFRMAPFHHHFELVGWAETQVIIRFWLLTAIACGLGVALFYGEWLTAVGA

CO[C@H]1[C@@H](O)[C@H](n2ccc(=O)[nH]c2=O)O[C@@H]1[C@@H](O[C@H]1OC(C(=O)N[C@H]2CCCCNC2=O)=C[C@H](O)[C@@H]1O)C(N)=O [Capuramycin, capuramycin] showed an inhibition at 10 µM [1] of 0%, an inhibition at 50 µM [1] of 0% and an inhibition at 100 µM [1] of 0%. For the same molecule, the IC50 [2] was 0.13 µM, the “Inhibition of MurG function / lipid II formation” value [3] was “did not inhibit” and the inhibition at 10 µM [3] was 0%. The inhibition at 50 µM [3] was 0%, the inhibition at 100 µM [3] was 0% and the IC50 [4] was over 100 µM.

CC[C@@H](CO)NCCN[C@@H](CC)CO [Ethambutol] showed an IC50 [5] of over 100 µg/mL.

In the case of CO[C@H]1[C@@H](OC)[C@H](n2ccc(=O)[nH]c2=O)O[C@@H]1[C@@H](O[C@H]1OC(C(=O)N[C@H]2CCCCNC2=O)=C[C@H](O)[C@@H]1O)C(N)=O [O-Methylcapuramycin, O-methylcapuramycin], the IC50 [6] is reported as over 100 µM, the IC50 [2, 16] is reported as over 100 µM and the “Inhibition of MurG function / lipid II formation” value [3] is reported as “did not inhibit”. The IC50 [4, 17] was over 100 µM.

For C[C@@H]([C@H](N)C(=O)N[C@H](C(=O)O)[C@H]1O[C@@H](n2ccc(=O)[nH]c2=O)[C@H](O)[C@@H]1O)[C@H](O)c1ccc(O)cn1 [Nikkomycin Z, nikkomycin Z], the “Mode of MurG inhibition” value [7] was “competitive inhibitory activity”, the IC50 [6] was 8.7 µM and the IC50 [1] was 9.5 µM. For the same molecule, the inhibition at 10 µM [1] was 35%, the inhibition at 50 µM [1] was 45% and the inhibition at 100 µM [1] was 93%. For the same molecule, the IC50 [2] was over 100 µM, the inhibition at 10 µM [3] was 33% and the inhibition at 50 µM [3] was 50%. The inhibition at 100 µM [3] was 95%, the IC50 ([3]; read-out: IC50 against HyMurG via UV-Vis spectrometry, dose-response curves) was 8.7 µM and the “Growth inhibition of M. smegmatis and M. tuberculosis” value [8] was “did not inhibit growth”. It also gave an IC50 [5] of over 100 µg/mL and an IC50 [4] of 9.5 µM.

Work on CN[C@H](CC(C)C)C(=O)N[C@H]1C(=O)N[C@@H](CC(N)=O)C(=O)N[C@H]2C(=O)N[C@H]3C(=O)N[C@H](C(=O)N[C@H](C(=O)O)c4cc(O)cc(O)c4-c4cc3ccc4O)[C@H](O)c3ccc(c(Cl)c3)Oc3cc2cc(c3O[C@@H]2O[C@H](CO)[C@@H](O)[C@H](O)[C@H]2O[C@H]2C[C@](C)(N)[C@H](O)[C@H](C)O2)Oc2ccc(cc2Cl)[C@H]1O [Vancomycin, vancomycin] yielded an inhibition at 10 µM [1] of 60%, an inhibition at 50 µM [1] of 67% and an inhibition at 100 µM [1] of 58%. The IC50 [9] was over 100 µg/mL.

With ristocetin A the “Vero cell cytotoxicity IC50” value [10] was over 100 µg/mL, the IC50 [6] was 0.96 µM and the “M. tuberculosis (H37Rv) MIC” value [11] was 0.5 µg/mL. The “Mode of MurX inhibition” value [2] was “non-competitive inhibition against Park’s nucleotide and prenyl-P”, the IC50 [2, 16] was 0.81 µM and the “Binding affinity, times less than that of vancomycin” value [12] was “about 3.0 times”. The “M. smegmatis (ATCC607) MIC” value [13] was under 0.39 µg/mL, the “Mode of HyMurG inhibition” value [14] was “competes for the UDP-GlcNAc binding-site” and the IC50 [4, 17] was 1.4 µM.

For NNC(=O)c1ccncc1 [INH], the “Vero cell cytotoxicity IC50” value [10] was over 100 µg/mL, the “M. tuberculosis (H37Rv) MIC” value [11] was 0.16 µg/mL and the “M. smegmatis (ATCC607) MIC” value [13] was 0.78 µg/mL.

With NC(=O)OC[C@H](O)[C@@H](O)[C@H](N)C(=O)N[C@H](C(=O)O)[C@H]1O[C@@H](n2cc(C(=O)O)c(=O)[nH]c2=O)[C@H](O)[C@@H]1O [Polyoxin D, polyoxin D] the “Vero cell cytotoxicity IC50” value [10] was over 100 µg/mL, the IC50 [6] was 50.8 µM and the “M. tuberculosis (H37Rv) MIC” value [11] was over 50.0 µg/mL. The IC50 [2, 16] was over 100 µM, the “Growth inhibition of M. smegmatis and M. tuberculosis” value [8] was “did not inhibit growth” and the “M. smegmatis (ATCC607) MIC” value [13] was over 50.0 µg/mL. For the same molecule, the IC50 [4, 17] was 55 µM.

B1: MurG of M. smegmatis (Mycolicibacterium smegmatis MC2 155) (protein)
chain: MNKGSRDNNHSDRGISVVLAGGGTAGHVEPAMAVADALRALDPDVRITALGTQRGLETRLVPQRGYDLELITPVPLPRKPSKDLLRLPMRVRTAIRQTRDVLTGVNADVVVGFGGYVALPAYLAARGGLTGRRKVPVVVHEANARAGLANRVGARSARRVLSAVPDSGLRNVEVVGVPVRESITSLDRAALRAQARAEFGFAEDARVLLVFGGSQGAQSINRAVSAAAKDLAAAGISVLHAHGPKNTLDLPPADPQAPPYVAVPYLDRMDLAYAAADLAICRSGAMTVAEVTAVGLPAIYVPLPIGNGEQRLNALPVVDAGGGLLVDDADLSGDTVARTVIPLLTDDSKLAAMTAAASLSGHPDAARRVAQVALEIARAARKKAS
For B1, the Km ([15]; 2e-C55 37.5 μM) was 36 ± 10^b μM and the Km ([15]; 2e-C55 75.0 μM) was 37 ± 3.0 µM.
